pKi: −log10 of the molar value. Each block holds one compound with its values, some of them ahead of it.
Tests used:
[1] = target: T1, TlGK (ADP-dependent glucokinase from Thermococcus litoralis) (Thermococcus litoralis, UniProt Q7M537); assay: X-ray crystal structure […] Å; SAXS; assay type: binding
T1 construct: gene glkA; recombinant, purified from LB culture as in Merino et al. (heat shock, ammonium sulfate, two chromatographic steps); two-domain enzyme

[2] = target: T1, TlGK (ADP-dependent glucokinase from Thermococcus litoralis); assay: product inhibition, discontinuous pyruvate kinase / lactate dehydrogenase assay; assay type: biochemical; settings: mixed type vs Mg·ADP and vs D-glucose; read-out: inhibition constants
[3] = target: T1, TlGK (ADP-dependent glucokinase from Thermococcus litoralis); assay: isothermal titration calorimetry (data not shown); also SAXS; assay type: binding; settings: absence of D-glucose; active site; MgADP
[4] = target: T1, TlGK (ADP-dependent glucokinase from Thermococcus litoralis); assay: product inhibition, G6PDH-coupled assay; assay type: biochemical; settings: competitive vs Mg·ADP, mixed vs D-glucose; Mg·AMP; pH 7.8; 40 °C

T1 sequence (Q7M537 whole entry): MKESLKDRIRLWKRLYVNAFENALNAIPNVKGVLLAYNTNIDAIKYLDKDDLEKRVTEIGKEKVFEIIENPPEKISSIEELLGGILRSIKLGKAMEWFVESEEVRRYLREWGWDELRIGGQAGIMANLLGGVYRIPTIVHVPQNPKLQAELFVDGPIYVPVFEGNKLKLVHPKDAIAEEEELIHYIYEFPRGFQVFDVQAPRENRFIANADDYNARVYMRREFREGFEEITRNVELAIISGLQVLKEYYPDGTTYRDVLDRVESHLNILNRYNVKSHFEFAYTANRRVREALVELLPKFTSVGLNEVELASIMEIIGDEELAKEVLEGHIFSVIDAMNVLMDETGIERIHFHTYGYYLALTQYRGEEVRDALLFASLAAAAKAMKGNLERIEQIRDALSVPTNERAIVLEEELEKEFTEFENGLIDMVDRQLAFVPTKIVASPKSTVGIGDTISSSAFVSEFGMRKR

- X-ray crystal structure 2.58 Å; SAXS ([1]; nonhydrolyzable ADP analog with D-glucose and Mg, beta-phosphate lacked density, modelled as AMP): 4B8S (TlGK·Mg·ADPβS·D-glucose)
SMILES: Nc1ncnc2c1ncn2[C@@H]1O[C@H](COP(=O)(O)OP(=O)(O)S)[C@@H](O)[C@H]1O (some centres unmarked) [ADPβS]

- pKi [2]: 3.11
SMILES: O=P(O)(O)OC[C@H]1OC(O)[C@H](O)[C@@H](O)[C@@H]1O (stereo partly drawn) [D-glucose-6-P]

- X-ray crystal structure 2.58 Å; SAXS ([1]; ternary complex with Mg·ADPβS, active site): 4B8S (TlGK·Mg·ADPβS·D-glucose)
SMILES: OC[C@H]1OC(O)[C@H](O)[C@@H](O)[C@@H]1O (stereo partly drawn) [D-glucose]

SMILES: Nc1ncnc2c1ncn2[C@@H]1O[C@H](COP(=O)(O)OP(=O)(O)O)[C@@H](O)[C@H]1O [Mg·ADP]
- dissociation constant [3]: isothermal titration calorimetry experiments demonstrated binding of MgADP to the enzyme

SMILES: Nc1ncnc2c1ncn2[C@@H]1O[C@H](COP(=O)(O)O)[C@@H](O)[C@H]1O [Mg·AMP]
- inhibition constants [4]: Mg·AMP behaves as a competitive inhibitor of Mg·ADP

— PMC3688580, “Crystal Structure, SAXS and Kinetic Mechanism of Hyperthermophilic ADP-Dependent Glucokinase from Thermococcus litoralis Reveal a Conserved Mechanism for Catalysis” (PLoS ONE, 2013)
